This is an account of results in patent publication US20190192522A1, “INHIBITORS OF THE FIBROBLAST GROWTH FACTOR RECEPTOR 4 IN COMBINATION WITH CYCLIN-DEPENDENT KINASE INHIBITORS” (BLUEPRINT MEDICINES CORPORATION, priority 2016, published 2019).

The test system of data set [1] is Huh-7 liver cancer xenograft. Nature of the data set: Huh-7 liver cancer xenograft efficacy study in female Balb/c nude mice. It counts as in vivo, Mus Musculus. The note with it: day eighteen. The protocol:
Each mouse was inoculated subcutaneously at the right flank with tumor cells (5×10^6) in 0.2 ml of PBS supplemented with Matrigel (50:50) for tumor development. The treatments were started on day 11 after tumor inoculation when the average tumor size reached approximately 183 mm^3. Each group consisted of nine tumor-bearing mice.
Tumor size was measured twice weekly in two dimensions using a caliper, and the volume was expressed in mm^3 using the formula: […]
where a and b are the long and short diameters of the tumor, respectively. The tumor size was then used to calculate TGI and T/C values.
TGI was calculated for each group using the formula: […]
where Ti is the average tumor volume of a treatment group on a given day; T0 is the average tumor volume of the treatment group on the day treatment began; Vi is the average tumor volume of the vehicle control group on the same day Ti was measured, and V0 is the average tumor volume of the vehicle group on the day treatment began. The T/C value (in percent) is an indication of antitumor effectiveness. T and C are the mean volumes of the treated and control groups, respectively, on a given day.
Summary statistics, including mean and the standard error of the mean (SEM), were provided for the tumor volume of each group at each time point. For tumor volume comparison among more than two groups, a one-way ANOVA was performed. For comparisons between two groups, a t-test was performed. All analysis was run in GraphPad Prism 5.0, with p<0.05 considered to be statistically significant.
For all groups, at four hours after last dosing, tumor samples were collected in less than one minute after the euthanasia. Four tumors in each group were snap frozen; four tumors were fixed and made into FFPE.

In data set [2] the test system is LIX-066 human primary hepatocellular carcinoma model. Nature of the data set: In vivo efficacy study in LIX-066 xenograft model. The note with it: bid, po, D28. More on the design: species or system mice. How it is done:
LIX-066 was a human primary hepatocellular carcinoma model from ChemPartner. 130 mice were implanted for this study. Two animals were designated as sentinels; 2 animals were designated as extras.
Animals were monitored daily by general clinical observation throughout the study period. Body weights were recorded twice weekly before randomization and recorded every day during dosing period and the dose was adjusted per body weight. Tumor areas (length×width) was measured two to three times per week by using digimatic callipers throughout the study period and tumor volumes were calculated based on the following formula: tumor volume=[…]. The tumor volume was then used for calculations of net tumor growth inhibition (TGIn) values. The TGIn (in percent) is the indication of anti-tumor activity. TGIn (%)=[1−avTi-0/avCi-0)]×100; avTi-0 is the average of the tumor volume of each mouse in the treatment group on a specific day minus the tumor volume of each mouse in the treatment group on the first day; avCi-0 is the average of the tumor volume of each mouse in the Vehicle control group on a specific day minus the tumor volume of each mouse in the Vehicle control group on the first day of treatment. Efficacy data was graphically represented as the mean tumor volume±standard error of the mean (SEM).
Based on about 40% take rate, 50 animals were selected for efficacy study when their tumors reach appropriate size (100-300 mm^3). Five animals were used for plasma PK standard control. All other animals were euthanized. The 50 animals were randomized (blocked randomization/using Excel software) and divided into the following groups for compound administration:
Group 1: N=10; Vehicle control (PEG400: 20% HP-γ-CD=3:2)
Group 2: N=10; Compound 1, 30 mg/kg, bid, po
Group 3: N=10; Compound 1, 100 mg/kg, bid, po […]
All animals were monitored daily for clinical observation (animal mortality, appearance, spontaneous activity, body posture, and food and water intake. Any lesions and adverse reactions were recorded). […]
The mice were euthanized and the tumor weights were measured without sampling.

Data set [3] concerns Hep3B tumor. Nature of the data set: In vivo efficacy study in Hep3B-FGF19 amplified mice. The note with it: Compound 1 monotherapy. How it is done: (§1) A similar study as described above was carried out using Hep3B-FGF19 amplified mice. Tumor volume results are shown in (FIG. 10A). Compound 1 monotherapy induced Hep3B tumor shrinkage (100% regression, >20% CRs).
Data set [4] is described as follows: Tolerability in Hep3B and LIX-066 tumor models. In kind it is in vivo. How it is done: All animals were monitored daily for clinical observation (animal mortality, appearance, spontaneous activity, body posture, and food and water intake. Any lesions and adverse reactions were recorded). Any animals showing signs of debilitation, marked body weight loss (>20%), cachexia or large tumors that would inhibit an animal's ability to eat and drink or mobility were euthanized immediately. Any animals with severely ulcerated, infected or severely hemorrhagic tumors, or tumors whose estimated weight exceed 20% of the body weight were euthanized.
as §1

For data set [5], the system named is HCC cell lines with an intact FGFR4 signaling pathway (FGFR4, FGF19, and KLB). The following applies: Hagel et al., Cancer Discovery (2015); cited from earlier work.
Data set [6] is described as follows: Body weight in Huh-7 xenograft study. The note with it: palbociclib 90 mg/kg group, day fourteen. The protocol: Female Balb/c nude mice (Mus Musculus) between six and eight weeks old and weighing 18 to 20 g were used to evaluate the therapeutic efficacy of palbociclib and Compound 1 as monotherapies and in combination in Huh-7 liver cancer xenograft models. The tumor cells were maintained in vitro as a monolayer culture in DMEM medium supplemented with 10% heat inactivated fetal bovine serum at 37° C. in a 5% CO2 atmosphere. The tumor cells were routinely subcultured twice weekly by trypsin-EDTA treatment. The cells growing in an exponential growth phase were harvested and counted for tumor inoculation.
Palbociclib treated animals were supplied with sunflower seeds to mitigate body weight loss on and after day eight per the sponsor's approval.

Regarding `C=CC(=O)N[C@H]1CCOC[C@H]1Nc1ncc2cc(-c3c(Cl)c(OC)cc(OC)c3Cl)ccc2n1` [Compound 1, N-((3S,4S)-3-((6-(2,6-dichloro-3,5-dimethoxyphenyl)quinazolin-2-yl)amino)tetrahydro-2H-pyran-4-yl)acrylamide], the figures for the T/C value in data set [1] (Compound 1 30 mg/kg bid), in data set [1] (Compound 1 100 mg/kg bid) and in data set [1] (Compound 1 200 mg/kg bid) were 57%, 24% and 7%, respectively. Besides, the average tumor size amounted to 1612 mm^3 in data set [1] (Compound 1 30 mg/kg bid), 690 mm^3 in data set [1] (Compound 1 100 mg/kg bid) and 198 mm^3 in data set [1] (Compound 1 200 mg/kg bid). For the same compound, the average tumor volume in data set [2] (Compound 1 30 mg/kg) turned out to be 262.87 mm^3; in data set [2] (Compound 1 100 mg/kg), 168.03 mm^3; in data set [2] (Compound 1 200 mg/kg), 112.22 mm^3. For the same compound, the CRs in data set [3] is recorded as > 20%. For the same compound, the “Hep3B tumor shrinkage (regression)” value in data set [3] turned out to be 100%. Further, the tolerability entry in data set [4] is “well tolerated”.
As to `C=CC(=O)Nc1cccc(C)c1Nc1ncc2cc(-c3c(Cl)c(OC)cc(OC)c3Cl)ccc2n1` [Compound 2, N-(2-((6-(2,6-dichloro-3,5-dimethoxyphenyl)quinazolin-2-yl)amino)-3-methylphenyl)acrylamide], the “proliferation in HCC cell lines” value in data set [5] is given as “inhibit proliferation”.
In data set [1] (palbociclib 45 mg/kg), `CC(=O)c1c(C)c2cnc(Nc3ccc(N4CCNCC4)cn3)nc2n(C2CCCC2)c1=O` [palbociclib, 6-acetyl-8-cyclopentyl-5-methyl-2-{[5-(1-piperazinyl)-2-pyridinyl]amino}pyrido[2,3-d]pyrimidin-7(8H)-one, reference compound] gave a T/C value of 71% and an average tumor size of 1992 mm^3. For the same compound, in data set [1] (palbociclib 90 mg/kg), the T/C value was 41% and the average tumor size turned out to be 1169 mm^3. In data set [6], the “body weight loss (same animal, euthanized)” value is reported as > 20%.
